According to patent publication US11835499B2, “Methods of quantifying methylglyoxal-induced nucleic acid adducts” (CITY OF HOPE, priority 2018, dated 2023):

Columns and labels:
[1] = Stability of CEdG in acidic solution (acid-catalyzed depurination and sidechain isomerization); format: physicochemical; settings: acidic hydrolysis, 1 M AcOH at 37° C.
Procedure: A 1.25 mM solution of CEdG-A, B or dG in 100 μL of 1M AcOH (pH 2.4) was stirred at 37° C. Aliquots (10 μl) were removed periodically and added to 40 μL of 2M TEAA (pH 7.0). HPLC product analyses were performed using an Alltech HS HyperPrep 100 BDS C18 8μ column. A gradient of 0 to 4% CH3CN over 5 min was followed by 6.5% CH3CN over 30 min. TEAA (pH 7) was kept constant at 50 mM. The ratio of free base (CEGuanine or Guanine) to intact nucleoside (CEdG or dG) was calculated by integration of the corresponding HPLC peaks (see inset in FIG. 4). The CEG free base was identified as Peak A by ESI-MS in negative ion mode. C8H8O3N5, observed: m/z 222.064; calculated: m/z 222.063.
The chemical stability of CEdG was examined as an important criterion for evaluating its suitability as a quantitative biomarker. Purified stereoisomers of synthetic CEdG were subjected to acidic conditions (1 M AcOH at 37° C.) and the extent of released free base and diastereomer interconversion was monitored by HPLC as a function of time.

calf thymus DNA = experiment: Artifactual CEdG formation in calf thymus DNA during workup, with carbonyl scavenger
Procedure: Calf thymus or tissue-extracted DNA (100 μg) was dissolved in 80 μL of autoclaved 18.2 MΩ H2O containing 20 μL of sodium acetate (100 mM, pH 5.5), 20 μL of 1×TBE, 1.5 μL of 50 mM ZnCl2, and 2.37 μL of a 100 mM AG or D-P stock solution. DNA was denatured at 95° C. for 5 min on a PCR heating block and then brought to 4° C. for 5 min. After equilibration to 45° C., 1.5 μL of 10 U/μL nuclease P1 was added. Alkaline phosphatase (4 μL of 8 U/μL), 1 U of bovine phosphodiesterase, and 14 μL of 100 mM CaCl2 were added after 1 hour, and the hydrolysis/dephosphorylation was continued for another 7 hours. […] DNA concentrations were determined by UV spectroscopy (1 OD260=50 μg/ml) and samples were stored at −80° C. prior to MS analyses. A 5 μL aliquot of digest was diluted to 200 μL and used for quantitation of 2′-deoxyguanosine by HPLC integration using a Beckman C18 reverse phase (25 cm×4.6 mm) column (Fullerton, CA). […]
Commercial grade calf thymus DNA was used as a model substrate for developing a protocol for CEdG quantitation in double-stranded DNA. […] Concentrations of AG from 0.5 to 50 mM were added prior to workup, and CEdG levels were measured in order to determine the optimal concentration required to achieve stable, reproducible levels. […]

[2] = test system: DNA extracted from breast tumor or adjacent tissue; experiment: Artifactual CEdG formation during DNA extraction from human breast tumor and adjacent tissue, with carbonyl scavenger; settings: 10 mM D-penicillamine in two aliquots during cell lysis/DNA isolation and hydrolysis/dephosphorylation
Procedure: Breast tumor and adjacent normal tissue were obtained from the frozen tumor bank of the City of Hope Pathology Core. A pea-sized section (˜100 mg) of tissue was minced and suspended in 1.2 mL of digestion buffer (100 mM NaCl, 10 mM Tris HCl, pH 8, 25 mM EDTA, pH 8, 0.5% SDS, 0.2 mg/mL proteinase K, 10 mM D-penicillamine) and incubated at 50° C. in a water bath for 12-18 h. DNA was then extracted using an equivalent volume of phenol/chloroform/isoamyl alcohol (25:24:1). The aqueous fraction was separated and 0.5 volumes of ammonium acetate and 2 volumes of 100% ethanol were added. The DNA was spooled, washed twice with 70% ethanol, pelleted, and resuspended in autoclaved 18.2 MΩ water. The enzymatic hydrolysis was carried out as described above.
Levels of CEdG in DNA extracted from either breast tumor or adjacent tissue in the absence of carbonyl scavenger were ˜1.5-2.0-fold higher; however, artifactual formation was inhibited by the addition of 10 mM D-penicillamine in two aliquots during both the cell lysis/DNA isolation and hydrolysis/dephosphorylation steps. ^15N-enriched isotopomers of CEdG differing from the unlabeled adducts by 5 amu were synthesized, which provided sufficient mass resolution for accurate and reproducible quantitation using the stable isotope dilution method.

Question: For `CC(Nc1nc2c(ncn2[C@H]2C[C@H](O)[C@@H](CO)O2)c(=O)[nH]1)C(=O)O` (single isomer, unassigned) [CEdG-A, N^2-(1-carboxyethyl)-2′-deoxyguanosine], which “racemization of the sidechain stereocenter / interconversion of CEdG isomers A and B” value [1] is on record?
Answer: No racemization

Question: With `CC(Nc1nc2c(ncn2[C@H]2C[C@H](O)[C@@H](CO)O2)c(=O)[nH]1)C(=O)O` (single isomer, unassigned) [CEdG-B, N^2-(1-carboxyethyl)-2′-deoxyguanosine] as the molecule, how does the “racemization of the sidechain stereocenter / interconversion of CEdG isomers A and B” value [1] read?
Answer: No racemization

Question: Which “CEdG adduct levels after hydrolysis/dephosphorylation” value (calf thymus DNA; 10 mM AG added prior to sample processing, without scavenger 60-66 CEdG/10^6 dG) does the source give for `N=C(N)NN` [AG, aminoguanidine] here?
Answer: 45-50 CEdG/10^6 guanines

Question: And the “CEdG levels after mock proteolysis and hydrolysis/dephosphorylation” value (calf thymus DNA; 10 mM AG in two aliquots, without scavenger 80-100 CEdG/10^6 guanines)?
Answer: drop in measured CEdG levels

Question: For `CC(C)(S)[C@@H](N)C(=O)O` [D-penicillamine], which “artifactual CEdG formation” value [2] is on record?
Answer: inhibited
